Results on two compounds are retold here after PMC4113456, “Atypical Signaling and Functional Desensitization Response of MAS Receptor to Peptide Ligands” (PLoS ONE, 2014).

One assay deals with T1, MAS F112A mutant (Homo sapiens, UniProt P04201, F112A).
T1 construct: expressed in transfected cells
T1 sequence (P04201 1-325 F112A): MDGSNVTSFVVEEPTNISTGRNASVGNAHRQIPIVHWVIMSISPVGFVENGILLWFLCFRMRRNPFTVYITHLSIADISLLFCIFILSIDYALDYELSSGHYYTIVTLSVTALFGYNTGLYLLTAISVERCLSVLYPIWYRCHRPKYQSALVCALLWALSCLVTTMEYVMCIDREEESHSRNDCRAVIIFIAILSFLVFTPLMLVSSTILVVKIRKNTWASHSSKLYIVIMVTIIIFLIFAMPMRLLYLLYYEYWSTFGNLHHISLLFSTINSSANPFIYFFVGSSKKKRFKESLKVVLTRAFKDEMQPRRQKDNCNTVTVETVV
The assay can be described thus: IP1 assay, F112A MAS mutant stable cell line. The format is cell-based. From the text:
(§1) The WT MAS expression construct was synthesized with an N-terminal myc-tag (Figure 1) by GenScript (Piscataway, NJ). The myc-tagged WT MAS from this vector was initially sub-cloned into pcDNA3.1 and later sub-cloned into tetracycline/doxycycline inducible vector pcDNA 5/TO (Life Technologies, Grand Island, NY). Four different ligand binding MAS mutants (F112A, I191A, M244A and T270A) were created using site-directed mutagenesis of WT myc-tagged MAS in pcDNA3.1 or pcDNA 5/TO vector background (Agilent Technologies, Santa Clara, CA). WT MAS receptor without an epitope tag was constructed by replacing the 5′ portion of the myc-tagged WT MAS in pcDNA 5/TO by untagged MAS sequence from a plasmid construct provided as a gift from Arena Pharmaceuticals, Inc. (San Diego, CA). The sequences of all WT and mutant MAS genes in plasmid constructs were verified by capillary DNA sequencing at the Genomics Core at Lerner Research Institute (Cleveland, OH).
(§2) IP1 levels in the cells were measured using the IP-One Tb kit (Cisbio US, Bedford, MA). For the assay, cells were seeded onto a 384-well low volume white cell culture plate at a density of 25,000 cells/well in 20 µl of induction or complete medium. In the IP1 assays the cell density of 25,000 cells/well was consistently maintained to minimize variability between independent experiments. The cells were maintained in a cell culture incubator for 26–28 h. […] Time-resolved ratiometric fluorescence emission measurements at 665 nm and 620 nm were taken after excitation at 343 nm on FlexStation 3 instrument. […]
(§3) For re-stimulation assays, the data is expressed as the percentage of maximum agonist stimulation to allow for ready comparison between individual experiments. For the IP1 assay, a standard curve was generated using the 4-Parameter logistic equation fit of the HTRF readings of IP1 standards using the SoftMax Pro software. […] In the luciferase assay, the luminescence measurements (RLU) are presented as a ratio of firefly to renilla luciferase activity. […]

The target in a further assay is T2, MAS I191A mutant (Homo sapiens, UniProt P04201, I191A).
T2 construct: expressed in transfected cells
T2 sequence (P04201 1-325 I191A): T1 sequence (P04201 1-325 F112A) with A112F, I191A
The assay can be described thus: IP1 assay, I191A MAS mutant stable cell line. The format is cell-based.
Excerpt: as §1
IP1 levels in the cells were measured using the IP-One Tb kit (Cisbio US, Bedford, MA). For the assay, cells were seeded onto a 384-well low volume white cell culture plate at a density of 25,000 cells/well in 20 µl of induction or complete medium. In the IP1 assays the cell density of 25,000 cells/well was consistently maintained to minimize variability between independent experiments. The cells were maintained in a cell culture incubator for 26–28 h. The cells were then serum starved for 2 h by replacing the medium with 7 µl of serum free DMEM/F-12. During this step, 7 µl of serum free DMEM/F-12 was also added to the wells to which IP1 standards would be subsequently added. Following serum starvation, 7 µl of ligands and serially diluted IP1-standards prepared at 2x concentration in stimulation buffer (10 mM Hepes, 1 mM CaCl2, 0.5 mM MgCl2, 4.2 mM KCl, 146 mM NaCl, 5.5 mM glucose, 50 mM LiCl, pH 7.4) were added to the appropriate wells. The cells were then placed in the cell culture incubator for 4 h. Later, 3 µl each of d2-labeled IP1 and anti-IP1 cryptate Tb conjugated antibody diluted in lysis buffer was added sequentially to all the wells and the plate was incubated overnight in the dark at room temperature. Time-resolved ratiometric fluorescence emission measurements at 665 nm and 620 nm were taken after excitation at 343 nm on FlexStation 3 instrument. […]
as §3

The next assay has as its target T3, MAS T270A mutant (Homo sapiens, UniProt P04201, T270A).
T3 construct: expressed in transfected cells
T3 sequence (P04201 1-325 T270A): T1 sequence (P04201 1-325 F112A) with A112F, T270A
The assay can be described thus: IP1 assay, T270A MAS mutant stable cell line. The format is cell-based.
Excerpt: as §1, §2, §3

A further assay deals with T4, untagged WT MAS (Homo sapiens, UniProt P04201).
T4 construct: expressed in transfected cells
T4 sequence (P04201 1-325): T1 sequence (P04201 1-325 F112A) with A112F
The assay is described as follows: Calcium assay, untagged WT MAS inducible HEK293 stable cell line. Format: cell-based.

The subject of another assay is MAS. On the set-up: method as in ref [9] (a number printed in a supplementary file, which may have a reference list of its own: not looked up in the article's list). The note with it: Rat MAS; ref [9]; read-out: EC50 (IP1 assay); cited from earlier work.

Numbering of substitutions follows the chain as printed. Marks after values point to notes of the source that are not given here.

Procedure for untagged WT MAS: The assay was performed using FLIPR Calcium 5 assay kit (Molecular Devices, Sunnyvale, CA). For calcium measurements, cells at a density of 125,000 cells/well in 100 µl medium were seeded onto a 96-well clear bottom black cell culture plate that was pre-coated with poly-L-lysine. In the calcium assays the cell density of 125,000 cells/well was consistently maintained to minimize variability between independent experiments. The cells were seeded in induction media to induce MAS expression or in complete media for negative controls. The plate was maintained in a cell culture incubator for 26–28 h. The cells were then serum starved for 2 h by replacing the medium with 100 µl of serum free DMEM. In the case of pre-treatment with pan-inhibitor of G protein signaling, BIM-46187, the cells were initially serum starved for 1 h by replacing the medium with 50 µl of serum free DMEM. After 1 h, 50 µl of BIM-46187 was added to the cells to a final concentration of 25 µM and treated for another 1 h. Following serum starvation, 100 µl of calcium sensitive dye along with 2x (2.5 mM final concentration) probenecid (Life Technologies, Grand Island, NY) was added to the cells. During this step, AR-inverse agonist or BIM-46187 was also added at desired concentrations to the calcium dye preparation in case of experiments where cells were pre-treated with these inhibitors. The cells were maintained for one hour in the cell culture incubator. Following this, the 96-well plate containing cells loaded with calcium dye and a U-bottom 96-well plate containing ligands at 5x the desired final concentration in D-PBS (1.47 mM KH2PO4, 138 mM NaCl, 2.67 mM KCl, 8.1 mM Na2HPO4, pH 7.3) were allowed to equilibrate for 15 min on a FlexStation 3 instrument (Molecular Devices, Sunnyvale, CA) at 37°C. The plates were further equilibrated on the instrument for 5 min with the lids removed from the plates. The instrument was programmed in FLEX mode to add ligands (50 µl at 5x concentration) to the cells and to monitor the fluorescence before and after adding the ligands. […]

Turning to `COc1cc([N+](=O)[O-])ccc1S(=O)(=O)N1CC(CN2CCN(c3ccccn3)CC2)C(c2cccc(F)c2)C1` (centres unmarked) [AR-agonist], the “EC50, IP1 assay” value on MAS F112A mutant and on MAS T270A mutant was “cbd” each time. The 50% effective concentration (EC50) (as a rule, the concentration that produces a half-maximal response) was 2.4 ± 1.1 µM at MAS I191A mutant; 1.2 ± 0.1 µM at untagged WT MAS (read-out: EC50, calcium flux); 0.17 µM in the assay with MAS. Besides, at MAS I191A mutant, the “Fold over WT, EC50 IP1 assay” value stood at 1.8.
For `C=CCCN1CCC2(CC1)CN(C(=O)c1c(F)cccc1F)c1ccc(Cl)cc12` [AR-inverse], the “Fold over WT, IC50 IP1 assay” value on MAS F112A mutant is given as 3**; at MAS I191A mutant it was 1.3; at MAS T270A mutant, 2.5**. The IC50 – broadly, the point on the concentration scale where inhibition reaches its midpoint – on MAS F112A mutant was determined as 2.1 ± 0.4 µM; against MAS I191A mutant it was 0.9 ± 0.1 µM; at MAS T270A mutant it was 1.7 ± 0.03 µM; on untagged WT MAS (read-out: IC50, calcium flux) it was 0.5 ± 0.4 µM. Besides, in the assay with MAS, the concentration for a half-maximal effect (EC50) was 0.348 µM.
